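The compound was tested at five concentrations on cells cultured in 96-well plates, with a 48-hour exposure period. GI50 marks 50% less growth.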 Activity calls are given as the source filed them. Rule as the data show it: active = GI50 up to about 1.1 µM and inactive = higher.
Experiments:
Assay in all cases: NCI tumour cell line growth inhibition, 48 h
SF-539 = system: SF-539
SF-268 = system: SF-268
M14 = system: M14
OVCAR-8 = system: OVCAR-8
HOP-62 = system: HOP-62
RXF 393 = system: RXF 393
HCT-15 = system: HCT-15
SK-MEL-28 = system: SK-MEL-28
NCI-H522 = system: NCI-H522
CAKI-1 = system: CAKI-1
HOP-92 = system: HOP-92
MDA-MB-435 = system: MDA-MB-435
SW-620 = system: SW-620
ACHN = system: ACHN
A549 = system: A549
IGROV-1 = system: IGROV-1
DU-145 = system: DU-145
NCI-H23 = system: NCI-H23
NCI/ADR-RES = system: NCI/ADR-RES
U-251 = system: U-251
UO-31 = system: UO-31
SNB-75 = system: SNB-75
UACC-62 = system: UACC-62
NCI-H460 = system: NCI-H460
Malme-3M = system: Malme-3M
SK-MEL-5 = system: SK-MEL-5
OVCAR-5 = system: OVCAR-5
TK-10 = system: TK-10
HT-29 = system: HT-29
SR = system: SR
SNB-19 = system: SNB-19
OVCAR-3 = system: OVCAR-3
SK-OV-3 = system: SK-OV-3
SF-295 = system: SF-295
T47D = system: T47D
K562 = system: K562
KM12 = system: KM12
HCT-116 = system: HCT-116
OVCAR-4 = system: OVCAR-4
HCC 2998 = system: HCC 2998
Hs-578T = system: Hs-578T
RPMI-8226 = system: RPMI-8226
HL-60 = system: HL-60
MDA-N = system: MDA-N
NCI-H226 = system: NCI-H226
MDA-MB-231 = system: MDA-MB-231
EKVX = system: EKVX
786-0 = system: 786-0
PC-3 = system: PC-3
SN12C = system: SN12C
BT-549 = system: BT-549
COLO 205 = system: COLO 205
LOX IMVI = system: LOX IMVI
MOLT-4 = system: MOLT-4
MCF7 = system: MCF7
SK-MEL-2 = system: SK-MEL-2
UACC-257 = system: UACC-257
CCRF-CEM = system: CCRF-CEM

CC(=O)OCC1OC(n2c(-c3ccc(Cl)cc3)cc(-c3ccccc3)c(C#N)c2=S)C(OC(C)=O)C(OC(C)=O)C1OC(C)=O (configuration not stated)
GI50 (SF-539): 3.99 µM (inactive)
GI50 (SF-268): 10.8 µM (inactive)
GI50 (M14): 4.98 µM (inactive)
GI50 (OVCAR-8): 10 µM (inactive)
GI50 (HOP-62): 7.85 µM (inactive)
GI50 (RXF 393): 13.3 µM (inactive)
GI50 (HCT-15): 29.9 µM
GI50 (SK-MEL-28): 6.5 µM (inactive)
GI50 (NCI-H522): 18.1 µM (inactive)
GI50 (CAKI-1): 13.9 µM (inactive)
GI50 (HOP-92): 19.6 µM (inactive)
GI50 (MDA-MB-435): 12.7 µM (inactive)
GI50 (SW-620): 3.3 µM (inactive)
GI50 (ACHN): 13.5 µM (inactive)
GI50 (A549): 14.5 µM (inactive)
GI50 (IGROV-1): 13.1 µM (inactive)
GI50 (DU-145): 15.7 µM (inactive)
GI50 (NCI-H23): 14.2 µM (inactive)
GI50 (NCI/ADR-RES): 6.71 µM (inactive)
GI50 (U-251): 8.67 µM (inactive)
GI50 (UO-31): 23.5 µM (inactive)
GI50 (SNB-75): 8.13 µM (inactive)
GI50 (UACC-62): 3.85 µM (inactive)
GI50 (NCI-H460): 5.78 µM (inactive)
GI50 (Malme-3M): 2.87 µM (inactive)
GI50 (SK-MEL-5): 11.4 µM (inactive)
GI50 (OVCAR-5): 19.6 µM (inactive)
GI50 (TK-10): 27.4 µM (inactive)
GI50 (HT-29): 7.06 µM (inactive)
GI50 (SR): 10.7 µM (inactive)
GI50 (SNB-19): 8.53 µM (inactive)
GI50 (OVCAR-3): 10.6 µM (inactive)
GI50 (SK-OV-3): 12.6 µM (inactive)
GI50 (SF-295): 11.5 µM (inactive)
GI50 (T47D): 18.7 µM (inactive)
GI50 (K562): 3.66 µM (inactive)
GI50 (KM12): 18.5 µM (inactive)
GI50 (HCT-116): 6.11 µM (inactive)
GI50 (OVCAR-4): 1.79 µM (inactive)
GI50 (HCC 2998): 7.14 µM (inactive)
GI50 (Hs-578T): 2.71 µM (inactive)
GI50 (RPMI-8226): 8.91 µM (inactive)
GI50 (HL-60): 3.18 µM (inactive)
GI50 (MDA-N): 11.3 µM (inactive)
GI50 (NCI-H226): 4.28 µM (inactive)
GI50 (MDA-MB-231): 4.33 µM (inactive)
GI50 (EKVX): 17.7 µM (inactive)
GI50 (786-0): 12.2 µM (inactive)
GI50 (PC-3): 11.3 µM (inactive)
GI50 (SN12C): 11.2 µM (inactive)
GI50 (BT-549): 5.01 µM (inactive)
GI50 (COLO 205): 13.2 µM (inactive)
GI50 (LOX IMVI): 4.29 µM (inactive)
GI50 (MOLT-4): 12.8 µM (inactive)
GI50 (MCF7): 17.3 µM (inactive)

CC(C)OP(=O)(OC(C)C)C(C)(C)O
GI50 (SF-539): > 100 µM (inactive)
GI50 (SF-268): > 100 µM (inactive)
GI50 (M14): > 100 µM (inactive)
GI50 (OVCAR-8): > 100 µM (inactive)
GI50 (HOP-62): > 100 µM (inactive)
GI50 (RXF 393): > 100 µM (inactive)
GI50 (HCT-15): > 100 µM
GI50 (SK-MEL-2): > 100 µM (inactive)
GI50 (SK-MEL-28): > 100 µM (inactive)
GI50 (NCI-H522): > 100 µM (inactive)
GI50 (CAKI-1): > 100 µM (inactive)
GI50 (HOP-92): > 100 µM (inactive)
GI50 (MDA-MB-435): > 100 µM (inactive)
GI50 (SW-620): > 100 µM (inactive)
GI50 (ACHN): > 100 µM (inactive)
GI50 (A549): > 100 µM (inactive)
GI50 (IGROV-1): > 100 µM (inactive)
GI50 (DU-145): > 100 µM (inactive)
GI50 (NCI-H23): > 100 µM (inactive)
GI50 (NCI/ADR-RES): > 100 µM (inactive)
GI50 (U-251): > 100 µM (inactive)
GI50 (UO-31): > 100 µM (inactive)
GI50 (SNB-75): > 100 µM (inactive)
GI50 (UACC-62): > 100 µM (inactive)
GI50 (UACC-257): > 100 µM (inactive)
GI50 (Malme-3M): > 100 µM (inactive)
GI50 (SK-MEL-5): > 100 µM (inactive)
GI50 (OVCAR-5): > 100 µM (inactive)
GI50 (TK-10): > 100 µM (inactive)
GI50 (HT-29): > 100 µM (inactive)
GI50 (SR): > 100 µM (inactive)
GI50 (SNB-19): > 100 µM (inactive)
GI50 (OVCAR-3): > 100 µM (inactive)
GI50 (SK-OV-3): > 100 µM (inactive)
GI50 (SF-295): > 100 µM (inactive)
GI50 (T47D): > 100 µM (inactive)
GI50 (K562): > 100 µM (inactive)
GI50 (KM12): > 100 µM (inactive)
GI50 (HCT-116): > 100 µM (inactive)
GI50 (OVCAR-4): > 100 µM (inactive)
GI50 (CCRF-CEM): > 100 µM (inactive)
GI50 (HCC 2998): > 100 µM (inactive)
GI50 (Hs-578T): > 100 µM (inactive)
GI50 (RPMI-8226): > 100 µM (inactive)
GI50 (HL-60): 83.2 µM (inactive)
GI50 (MDA-N): > 100 µM (inactive)
GI50 (NCI-H226): > 100 µM (inactive)
GI50 (MDA-MB-231): > 100 µM (inactive)
GI50 (EKVX): > 100 µM (inactive)
GI50 (786-0): > 100 µM (inactive)
GI50 (PC-3): > 100 µM (inactive)
GI50 (SN12C): > 100 µM (inactive)
GI50 (BT-549): > 100 µM (inactive)
GI50 (COLO 205): > 100 µM (inactive)
GI50 (LOX IMVI): > 100 µM (inactive)
GI50 (MOLT-4): > 100 µM (inactive)
GI50 (MCF7): > 100 µM (inactive)
